Laboratory results published in patent publication US7700088B2, “Interleukin-9 mutein peptides” (Genaera Corporation, priority 1995, dated 2010).
Entries after “also recorded” stand apart in the source; their conditions may differ.

Assays:
[1] = test system: IL-9 mediated MO7e proliferation; test: Inhibition of IL-9 mediated MO7e proliferation (acid phosphatase cell proliferation assay); format: cell-based, human; settings: for inhibition of cellular growth induced by IL-9: tyrophostins incubated with MO7e cells, compared with control (no treatment); for inhibition of cellular growth induced by IL-9 (antagonism of IL-9): peptides incubated with MO7e cells, compared with control (no peptide)
Protocol: Cell lines were used to assess the function of peptides, aminosterols, tyrophostins, rhIL-9, rmIL-9, and recombinant mutant forms of these proteins as well as all other compounds that block IL-9 function. A proliferative response was measured and compared to each of the other cytokines, variant or mutant forms of Il-9, or IL-9 antagonists. In addition, compounds were tested for their ability to antagonize the baseline proliferative response. Once a baseline proliferative response was established for a cytokine a statistically significant loss of response in assays repeated three times in triplicate was considered evidence for antagonism. A true antagonistic response was differentiated from cellular toxicity by direct observation, trypan blue staining (a technique well known to one of normal skill in the art), and loss of acid phosphatase activity. Specificity was assessed for the antagonist by evaluating whether the activity was substantially expressed against other proliferative agents such as steel factor, interleukin 3, or interleukin 4.
The MO7e line is a human megakaryoblastic cell line, cultured in RPMI 1640 (GIBCO/BRL, Gaithersburg, Md.), 20% Fetal Bovine Serum (Hyclone) and 10 ng/ml IL-3 (R&D Systems, Minneapolis, Minn.). The MJ line is a cytokine independent human lymphoblastoid cell line grown in RPMI 1640 (GIBCO/BRL) K562 is a human erthroleukemia cell line, cultured in RPMI 1640 (GIBCO/BRL) and 10% fetal bovine serum (Hyclone). C8166-45 is a IL-9 receptor bearing line, cultured in RPMI 1640 GIBCO/BRL) and 10% Fetal bovine serum (Hyclone). All the cell lines respond to cytokines including IL-9. The cell lines are fed and reseeded at 2×10^5 cells/ml every 72 hours.
The cells were centrifuged for 10 minutes at 2000 rpm and resuspended in RPMI 1640 with 0.5% Bovine Serum Albumin (GIBCO/BRL, Gaithersburg, Md.) and insulin-transferrin-selenium (ITS) cofactors (GIBCO/BRL, Gaithersburg, Md.). Cells were counted using a hemocytometer and diluted to a concentration of 1×10^5 cells/ml and plated in a 96-well microtiter plate. Each well contained 0.15 or 0.2 ml giving a final concentration of 2×10^4 cells per well.
MO7e cells were stimulated with 50 ng/ml Stem Cell Factor (SCF) (R&D Systems, Minneapolis, Minn.) alone, 50 ng/ml SCF plus 50 ng/ml IL-3 (R&D Systems, Minneapolis, Minn.), or 50 ng/ml SCF plus 50 ng/ml IL-9. A control was included which contains cells and basal media only. Serial dilutions of test compounds (i.e., recombinant IL-9 proteins, peptides, small molecules) were added to each test condition in triplicate. The MJ cell line was used as an independent control for nonspecific cytotoxicity. Cultures were incubated for 72-96 hours at 37° C. in 5% CO2.
Cell proliferation was assayed using the Abacus Cell Proliferation Kit (Clontech, Palo Alto, Calif.) which determines the amount of intracellular acid phosphatase present as an indication of cell number. The substrate p-nitrophenyl phosphate (pNPP) was converted by acid phosphatase to p-nitrophenol which was measured as an indicator of enzyme concentration. pNPP was added to each well and incubated at 37° C. for one hour. 1N sodium hydroxide was then added to stop the enzymatic reaction, and the amount of p-nitrophenol was quantified using a Dynatech 2000 plate reader (Dynatech Laboratories, Chantilly, Va.) at 410 nm wavelength. Standard curves that compare cell number with optical absorbance were used to determine the linear range of the assay. Assay results were only used when absorbance measurements are within the linear range of the assay.

Soluble IL-9 receptor = biological target: T1, Soluble IL-9 receptor (Homo sapiens, UniProt Q01113); test: Binding of recombinant IL-9 forms to soluble IL-9 receptor (anti-FLAG immunoprecipitation, Western blot); settings: 0.5 micrograms soluble receptor (amino acids 44 to 270), PBS, room temperature, 30 minutes
T1 construct: Soluble IL-9 receptor including amino acids 44 to 270 (R&D Systems); purchased R&D Systems
T1 sequence (Q01113 44-270): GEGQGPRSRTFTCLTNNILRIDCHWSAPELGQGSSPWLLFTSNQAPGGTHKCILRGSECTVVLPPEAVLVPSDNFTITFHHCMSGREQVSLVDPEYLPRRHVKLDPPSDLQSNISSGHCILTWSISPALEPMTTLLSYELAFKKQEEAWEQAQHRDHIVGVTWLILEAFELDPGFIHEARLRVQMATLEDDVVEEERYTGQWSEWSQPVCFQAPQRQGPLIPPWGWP
Protocol: Soluble IL-9 receptor including amino acids 44 to 270 (R&D Systems) was incubated with different forms of human recombinant IL-9. Varying amounts of FlagMet117 and FlagThr117 (described in Example 7) were incubated in PBS at room temperature for 30 minutes with 0.5 micrograms of soluble receptor. EBC buffer (50 mM Tris pH 7.5; 0.1 M NaCl; 0.5% NP40) was added (300 microliters) was added along with 1 microgram of anti-FLAG monoclonal antibody (IBI) and incubated for 1 hour on ice. Forty microliters of protein A sepharose solution was added to each sample and mixed for 1 hour at 4° C. Samples were centrifuged for 1 minute 11,000×G and pellets were washed 4 times with 500 microliters of EBC. Pellets were dissolved in 26 microliters of 2×SDS buffer, boiled for 4 minutes, and electrophoresed through an 18% SDS polyacrylamide gel. Western blots were performed as described in Example 15 except the blots were probed with an anti-IL-9 receptor antibody (R&D Systems).

N#C/C(=C\c1ccc(O)c(O)c1)C(=O)NCCCCc1ccccc1 [Tyrophostin B56, reference compound]
inhibition of cellular growth induced by IL-9 [1]: greatest inhibition

KP-23: peptide derived from IL-9 exon 5, SEQ ID NO: 15, spanning the codon 117 polymorphism (EQPANQTTAGNALTFLKS)
inhibition of cellular growth induced by IL-9 (antagonism of IL-9) [1]: antagonistic properties

IL-9 FlagMet117: purified recombinant human FLAG IL-9 fusion protein with methionine at position 117
binding to soluble IL-9 receptor (Soluble IL-9 receptor): bound to the soluble receptor

KP-24: peptide derived from IL-9 exon 5, SEQ ID NO: 16, spanning the codon 117 polymorphism (TAGNALTFLKSLLEIFQK; Residues 99-116 of Mature hIL-9 Receptor)
inhibition of cellular growth induced by IL-9 (antagonism of IL-9) [1]: antagonistic properties

KP-16: antagonistic peptide derived from IL-9 exon 4, IL-9 residues 43-60, SEQ. ID NO: 13 (SDNATRPAFSERLSQMTN)
inhibition of cellular growth induced by IL-9 (antagonism of IL-9) [1]: considerable inhibitory activity; also recorded: act as IL-9 antagonists

N#C/C(=C\c1ccc(O)c(O)c1)C(=O)NCCCc1ccccc1 [Tyrophostin B46, reference compound]
inhibition of cellular growth induced by IL-9 [1]: greatest inhibition

KP-20: antagonistic peptide derived from IL-9 exon 4, IL-9 residues 71-90, SEQ. ID NO: 14 (FSRVKKSVEVLKNNKAPY)
inhibition of cellular growth induced by IL-9 (antagonism of IL-9) [1]: considerable inhibitory activity; also recorded: act as IL-9 antagonists
